# Reference: ChEMBL document CHEMBL5120954, “Novel MRGX2 Antagonists for Treating Diseases” (ACS Med Chem Lett, 2022)
# Target: T1, Mas-related G-protein coupled receptor member X2 (Homo sapiens, UniProt Q96LB1)
# T1 sequence (Q96LB1 whole entry): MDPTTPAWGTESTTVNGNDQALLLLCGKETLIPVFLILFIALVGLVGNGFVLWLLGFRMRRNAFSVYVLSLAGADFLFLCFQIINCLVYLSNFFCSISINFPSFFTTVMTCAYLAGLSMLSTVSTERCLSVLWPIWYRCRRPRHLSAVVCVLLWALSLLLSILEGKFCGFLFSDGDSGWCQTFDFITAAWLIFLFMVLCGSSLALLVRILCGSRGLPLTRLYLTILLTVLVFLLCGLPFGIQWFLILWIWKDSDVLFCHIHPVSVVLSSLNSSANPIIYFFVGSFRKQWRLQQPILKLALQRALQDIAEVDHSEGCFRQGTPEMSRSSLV
# Assay: Antagonist activity at human MRGPRX2 expressed in HEK293 cells co-expressing mouse Galpha15 assessed as inhibition of Cortistatin-14 induced Ca2+ mobilization preincubated for 30 mins followed by Cortistatin-14 addition by FLIPRtetra-calcium mobilization assay
# Assay type: functional, cell-based
row,Compound,IC50
1,C[C@@H](C(=O)Nc1ccc(Oc2ccc(F)cc2F)cn1)N1CCC(F)(F)[C@@H](c2c[nH]c(=O)c(CS(C)(=O)=O)c2)C1,≤ 10 nM
2,CC(C(=O)Nc1ccc(Oc2ccc(F)cc2)cn1)N1CCC(F)(F)C(c2c[nH]c(=O)c(CNCCO)c2)C1 (stereo not given),≤ 10 nM
3,CC(C(=O)Nc1ccc(Oc2ccccc2)cn1)N1CCC(F)(F)[C@@H](c2c[nH]c(=O)c(CN)c2)C1 (stereo not given in full),≤ 10 nM
4,CC(C(=O)Nc1ccc(Oc2ccc(F)cc2)cn1)C1CCC(F)(F)C(c2ccc(=O)[nH]c2)C1 (stereo not given),≤ 10 nM
5,CC(C(=O)Nc1ccc(Oc2cnc(F)cc2Cl)cn1)N1CCC(F)(F)[C@@H](c2ccc(=O)[nH]c2)C1 (stereo not given in full),≤ 10 nM
